We go through two molecules from patent US20260102407A1, “TREATMENT METHODS” (priority 2020, published 2026).

Molecules are shown by their SMILES.

For data set [1], the target named is T1, Recombinant human His-MEK1 (Homo sapiens, UniProt Q02750).
T1 construct: purchased ThermoFisher Scientific PV3303
Put plainly: SPR (Biacore T200) on immobilised His-MEK1. Type of data set: binding. The note with it: 15° C.; 20 mM HEPES, 150 mM NaCl, 5% DMSO pH 7.4. The method, then:
SPR. SPR was performed on a Biacore T200. The active and reference flow cells of a Xantec NIHMC Ni sensor chip were conditioned with 0.5M NaEDTA followed by 5 mM NiCl2 in immobilisation buffer (20 mM HEPES, 150 mM NaCl, pH 7.4). Recombinant human His-MEK1 and His-MEK2 (500 nM, ThermoFisher Scientific, cat. PV3303 and PV3615, respectively) were injected for 15 min at 10 μl min^−1 over separate active flow cells. All immobilisation was carried out at 25° C. Following immobilisation, the temperature was lowered to 15° C., and the buffer changed to 20 mM HEPES, 150 mM NaCl, 5% DMSO pH 7.4. Samples of PD98059 (2.5-30 μM in running buffer) and BT2 (1.25-15 μM) were injected at a flow rate of 30 μl min^−1 over immobilised MEK1 and MEK2. Solvent correction was applied to the data using a DMSO standard curve. Data were analysed using the Biacore T200 Evaluation software. Prior to SPR, limits of compound solubility were determined using ^1H 1D NMR.

The subject of another data set is Balb/c mice. Put plainly: Collagen antibody-induced arthritis (footpad thickness, H&E, micro-CT, TRAP). The following applies: CAIA mice. It counts as in vivo, mouse. The method, then:
Collagen antibody-induced arthritis. Arthritis was induced in female Balb/c mice (6-8 week-old) as previously described with a commercially obtained cocktail of 5 monoclonal antibodies to type II collagen at 2 mg/mouse (Chondrex, Inc. Redmond, WA) followed by LPS (50 μg/mouse) with or without BT2 (3 or 30 mg/kg mouse) in DMSO vehicle was administered i.p. on Day 3. Hind footpad thickness was measured on Day 9 using digital calipers. Mice were sacrificed on Day 14 and microCT scanning of hind limbs was performed.
Micro-CT scanning and analysis. Formalin-ethanol fixed hind limbs were micro-CT scanned prior to histology processing using a Siemens Inveon micro-CT scanner (Victoria, Australia). Data was acquired with the Inveon Acquisition Workplace at 16.84 μm pixel size, 360 projections, 4100 ms integration time, 80 keV photon energy and 140 μA current. 3D models were visualized and snap shots of the limbs acquired with the Inveon Research Workplace software. Data was quantified by binary score where 0=no bone destruction and 1=destruction was given to each individual limb.
Tartrate-resistant acid phosphatase (TRAP) staining. Osteoclasts were stained using TRAP kit (Cosmo Bio, Japan, cat. PMC-AK04F-COS). Sections were heated at 65° C. for 1 h prior dewaxing. Tissue sections were deparaffinised with 100% xylene and rehydrated with 100, 70 and 30% ethanol and rinsed with distilled water for 5 min. Sections were covered with TRAP staining solution containing 3 mg tartaric acid per 50 ml tartaric acid buffer. The sections were incubated at 37° C. for 1 h, then rinsed in distilled water 3 times to halt the reaction. Sections were counterstained with hematoxylin for 5s then washed in running water until clear then dried. Sections were dehydrated with xylene and air-dried then mounted with aqueous permanent mounting medium. Within the synovium on the medial aspect of each animal joint, 6 random areas photographed under 20× objective were selected in the blinded fashion. Numbers of osteoclasts were counted using NIH Image J. Alternatively TRAP staining was quantitated using IOD (Image-Pro Plus).

For data set [2], the system named is HMEC-1. Put plainly: Endothelial proliferation assay using the Countess system with Trypan Blue exclusion. Type of data set: cell-based, human. The following applies: 5% FBS, 0.1-0.6 μM, 24 h. As for the experimental part:
Endothelial proliferation assay using the Countess system. HMEC-1 proliferation was assessed using a Countess II Automated Cell Counter (ThermoFisher Scientific). Briefly, HMEC-1 (3×10^5 cells/well) were seeded in a 12-well plate. Cells were serum-deprived for 24 h in MCDB131 medium which contained 10 ng/ml EGF and 1 μg/ml hydrocortisone then treated with compound (0.1-0.6 μM) in medium containing 5% FBS, 10 ng/ml EGF and 1 μg/ml hydrocortisone. The cells were trypsinized after 24 h, resuspended in complete medium, a 10 μl aliquot was combined with an equal volume of […], and total cell numbers and Trypan Blue-excluding cells as a proportion of total was determined using the Countess.

The subject of data set [3] is HMEC-1. Put plainly: Endothelial repair following in vitro injury (scratch assay). It counts as cell-based, human. The note with it: 0.6 μM, 5% FBS, 48 h. The method, then:
Endothelial repair following in vitro injury. HMEC-1 (90-100% confluency) in 6-well plates were washed with PBS, and treated with 0.6 μM compound in MCDB131 containing 5% FBS. A sterile pointed toothpick was used to scrape the cell monolayer and the wells photographed under 4× objective at 0 h and 48 h. Cell regrowth in the denuded zone was determined using Image-Pro Plus (Cybernetics, USA).

For a further data set, the system named is FosB/ΔFosB. As to the kind of experiment: Western blot, serum-inducible FosB/ΔFosB expression in HMEC-1. Type of data set: cell-based, human. The note with it: 30 μM compound, 10% FBS 1 h. The method, then:
Western blot analysis with extracts of cells treated with serum. HMEC-1 (80-90% confluency) were arrested in serum-free MCDB131 medium without EGF or hydrocortisone for 20 h. Cells were treated with 30 μM compound in serum-free MCDB131 medium for 4 h, and the medium was changed to complete medium (with 10% FBS with EGF and hydrocortisone) with 30 μM compound for 1 h. Total protein was harvested as previously described in radioimmunoprecipitation (RIPA) lysis buffer with protease inhibitors (Li, Y., et al., Int J Cardiol 220, 185-191 (2016)). Proteins were resolved on 4-20% (w/v) sodium dodecyl sulfate (SDS)-polyacrylamide gradient gels (Bio-Rad Mini-PROTEAN TGX) and transferred to Immobilon-P PVDF membranes (Millipore, USA). Membranes were blocked with 5% skim milk and incubated with rabbit monoclonal FosB (cat. 2251, 1:1000, Cell Signaling, USA), rabbit monoclonal c-Fos antibodies (cat. 2250, 1:1000, Cell Signaling, USA) at 4° C. overnight or mouse monoclonal […] antibodies (cat. A5316, 1:30000, Sigma-Aldrich) at 22° C. for 15 min then incubated with a horseradish peroxidase conjugated secondary goat anti-rabbit (cat. P0448, 1:1000, DAKO Cytomation, Denmark) or goat anti-mouse (cat. P0447, 1:1000, DAKO Cytomation, Denmark) antibodies for 1 h. Chemiluminescence was detected using the Western Lightning Chemiluminescence system (PerkinElmer, USA) and ImageQuant™ LAS 4000 biomolecular imager (GE Healthcare Life Sciences, USA). Band intensity in images generated with the LAS 4000 on automatic exposure with sensitivity/resolution setting high was quantified using NIH ImageJ.
(In western blotting, separated proteins are transferred to a membrane and probed.)

T1 sequence (Q02750 whole entry): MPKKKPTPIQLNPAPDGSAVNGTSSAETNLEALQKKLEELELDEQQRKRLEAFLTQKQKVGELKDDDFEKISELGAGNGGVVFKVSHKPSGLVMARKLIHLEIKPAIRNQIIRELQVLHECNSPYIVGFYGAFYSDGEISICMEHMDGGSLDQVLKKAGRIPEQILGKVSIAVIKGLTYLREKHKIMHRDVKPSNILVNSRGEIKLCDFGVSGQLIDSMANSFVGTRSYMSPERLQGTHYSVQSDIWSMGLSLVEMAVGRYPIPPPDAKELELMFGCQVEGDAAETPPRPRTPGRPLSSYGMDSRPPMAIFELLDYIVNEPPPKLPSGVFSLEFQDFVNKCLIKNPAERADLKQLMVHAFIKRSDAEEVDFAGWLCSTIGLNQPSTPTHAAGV

With `CCOC(=O)Nc1ccc2c(c1)C(=O)N(CC)c1ccccc1O2` [BT2, (10-ethyl-11-oxo-10,11-dihydro-dibenzo[b,f][1,4]oxazepin-2-yl)-carbamic acid ethyl ester], the “binding to His-MEK1 (SPR)” value in data set [1] was “bound to His-MEK1 significantly better than to His-MEK2”. Besides, in the data set with Balb/c mice (Day 14), the “TRAP staining in the joints” value is “reduced TRAP staining”, the “bone destruction (3D micro-CT of hind limbs)” value is on record as “inhibits bone destruction” and the “inflammation (H&E staining)” value is “reduced by BT2”. Further, the hind footpad thickness entry in the data set with Balb/c mice (single administration 30 mg/kg i.p. Day 3, Day 9) is “inhibited”. In addition, in the data set on HMEC-1 [2], the “Trypan Blue incorporation (% living cells)” value is recorded as “without affecting Trypan Blue incorporation” and the “serum-inducible proliferation, total cell numbers (Countess)” value is recorded as “inhibited serum-inducible proliferation”. Besides, the “endothelial regrowth after mechanical injury in vitro” value with HMEC-1 [3] was “blocked this reparative response”. In the data set on FosB/ΔFosB, the “serum-inducible FosB/ΔFosB expression (Western blot)” value was “blocked the inducible expression of FosB and ΔFosB”.

On to `CCN1C(=O)c2cc(N)ccc2Oc2ccccc21` [BT3, 2-amino-10-ethyldibenzo[b,f][1,4]oxazepin-11 (10H)-one], for which the “binding to His-MEK1 (SPR)” value in data set [1] was “no appreciable binding”. In the data set on HMEC-1 [3], the “endothelial regrowth after mechanical injury in vitro” value was “no such effect”. Also, the “serum-inducible FosB/ΔFosB expression (Western blot)” value in the data set with FosB/ΔFosB is “no inhibition”.
